This note sets out measurements from BindingDB's records for doi:10.1074/jbc.M113.514646 (Emory University, 2014).

Usually Ki stands for a measure of affinity in units of concentration, obtained from inhibition or displacement. By Kd is commonly meant the equilibrium constant for the complex coming apart.

Common to all, as to test: Ligand Binding Assay
Holding throughout (conditions): pH 8.2; 30 °C

The target in test [1] is Fatty acid-binding protein 5 [M35A,L60A] (Homo sapiens, UniProt Q01469, L60A/M35A). From the text:
(§1) In brief, both wild-type and mutant hFABP5 were expressed and purified to homogeneity as described above and dialyzed in PBS (pH 8.2). […] Blank measurements obtained from protein-only samples were subtracted at each protein concentration tested to obtain the final values. […] Blanks consisting of 1,8-ANS and fatty acid in the absence of protein were subtracted at each ligand concentration tested. The resulting fluorescence values were used to calculate a Ki value for the fatty acid of interest. Data were collected at 30 °C on a BioTek Synergy plate reader using an excitation filter of 380/20nm and an emission filter of 460/40nmand processed inGraphPad Prism 5.

The target of test [2] is Fatty acid-binding protein 5 (Homo sapiens, UniProt Q01469).
Sequence of Fatty acid-binding protein 5 (Q01469 whole entry): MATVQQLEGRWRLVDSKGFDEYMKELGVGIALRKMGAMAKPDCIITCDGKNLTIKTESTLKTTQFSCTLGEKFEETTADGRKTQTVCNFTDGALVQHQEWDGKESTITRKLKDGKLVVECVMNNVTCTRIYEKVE
Text: as §1

The target of test [3] is Fatty acid-binding protein 5 [K24A,R33A,K34A] (Homo sapiens, UniProt Q01469, K24A/K34A/R33A).
Sequence of Fatty acid-binding protein 5 [K24A,R33A,K34A] (Q01469 2-135 K24A/R33A/K34A limits assumed): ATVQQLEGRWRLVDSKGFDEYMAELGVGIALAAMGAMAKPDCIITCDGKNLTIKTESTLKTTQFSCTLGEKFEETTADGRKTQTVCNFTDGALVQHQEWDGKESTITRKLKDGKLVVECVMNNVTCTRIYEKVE
Text: as §1

Sequence of Fatty acid-binding protein 5 [M35A,L60A] (Q01469 2-135 M35A/L60A limits assumed): as the sequence (Q01469 2-135 K24A/R33A/K34A limits assumed) above, with A23K, A32R, A33K, M34A, L59A counted along it

In the case of `CCCCC/C=C\C/C=C\CCCCCCCC(=O)O`, the values for the Ki in test [1], in test [2] and in test [3] were 3470 nM, 1260 nM and 2170 nM, respectively.

On to `CCCCCC/C=C\CCCCCCCC(=O)O` [(9Z)-hexadec-9-enoic acid], for which the Ki was 1780 nM in test [1], 1360 nM in test [2] and 1640 nM in test [3].

On to `O=S(=O)(O)c1cccc2cccc(Nc3ccccc3)c12` [ANS], for which the results for the Kd in test [1], in test [2] and in test [3] were 6100 nM, 6570 nM and 12600 nM, respectively.

Consider `CCCCCCCCN[C@H]1C=C(CO)[C@@H](O)[C@H](O)[C@H]1O` [NOEV], for which the Ki came out at 700 nM in test [1], 1100 nM in test [2] and 1240 nM in test [3].

Take `CCCCC/C=C\C/C=C\C/C=C\C/C=C\CCCC(=O)O` [[1-14C]Arachidonic acid]: the inhibitory constant (Ki) in test [1] is 5010 nM; in test [2], 2590 nM; in test [3] it was 9370 nM.
